From PMC7944402, “Resin-acid derivatives bind to multiple sites on the voltage-sensor domain of the Shaker potassium channel” (The Journal of General Physiology, 2021)

Test system: Shaker KV channel binding sites (S3/S4, S4/pore, residual)
Test: Additive model of site contributions to the G(V) shift (least squares fit)
Design: species or system Drosophila melanogaster
Text: We also considered a reduced dataset of five mutants for Wu50 to make the comparison between the two compounds equitable (Table S1).
The G(V) shift for each mutant was expressed as a sum of contribution from the various sites: ΔVmodel=ΔVS3/S4+ΔVS4/pore+ΔVResidual, (4) where ΔVS3/S4 is the G(V) shift due to compound binding to the S3/S4 site, ΔVS4/pore is the G(V) shift due to compound binding to the S4/pore site, and ΔVResidual is the G(V) shift due to compound binding to other sites, including the top-VSD site.
Following the assumptions based on observations made using MD simulations, ΔVS3/S4 was set to 0 if the 2R motif was missing (i.e., in the WT channel), ΔVS4/pore could adopt one of four values depending on the type of mutation (R362/W454 = WT configuration, R362Q, W454A, or R362Q/W454A), and ΔVResidual was assumed to be the same for all mutants.
The model further assumed that there is a residual effect that can be due to binding to the VSD-top site or to any other unidentified site and that the contributions due to binding to the S3/S4 site and the S4/pore site depend upon mutations at this site.

SMILES: C[C@@]1(C(=O)O)CCC[C@]2(C)c3cc(Cl)c(Cl)c(Cl)c3CC[C@@H]12 [Wu50]
- ΔVS3/S4 (contribution of the S3/S4 site in the presence of the 2R mutations) (eight mutants): −17 mV
- ΔVS4/pore, R362Q configuration (eight mutants): −34 mV
- ΔVS4/pore, R362Q/W454A configuration (eight mutants): −31 mV
- ΔVS4/pore, WT S4/pore site (eight mutants): −15 mV
- ΔVS3/S4 (contribution of the S3/S4 site in the presence of the 2R mutations) (five mutants): −10 mV
- ΔVS4/pore, R362Q configuration (five mutants): −37 mV
- ΔVS4/pore, WT S4/pore site (five mutants): −18 mV
- ΔVResidual (contribution of other sites to the G(V) shift) (five mutants (Wu50 constrained to be the same as for eight mutants)): −10 mV
- ΔVS4/pore, W454A configuration (no clear difference between five-mutants and eight-mutants datasets): +2 to −6 mV
